Data reported in article PMC2889615 (Biochemistry, 2010).

What was measured:
PODANSg2158 = molecular target: T1, PODANSg2158 (Podospora anserina, UniProt B2AM55); test: X-ray crystal structure, […] Å; format: binding; conditions: wild-type enzyme; FAD in each of four subunits; pH 6 crystals
T1 sequence (B2AM55 1-430): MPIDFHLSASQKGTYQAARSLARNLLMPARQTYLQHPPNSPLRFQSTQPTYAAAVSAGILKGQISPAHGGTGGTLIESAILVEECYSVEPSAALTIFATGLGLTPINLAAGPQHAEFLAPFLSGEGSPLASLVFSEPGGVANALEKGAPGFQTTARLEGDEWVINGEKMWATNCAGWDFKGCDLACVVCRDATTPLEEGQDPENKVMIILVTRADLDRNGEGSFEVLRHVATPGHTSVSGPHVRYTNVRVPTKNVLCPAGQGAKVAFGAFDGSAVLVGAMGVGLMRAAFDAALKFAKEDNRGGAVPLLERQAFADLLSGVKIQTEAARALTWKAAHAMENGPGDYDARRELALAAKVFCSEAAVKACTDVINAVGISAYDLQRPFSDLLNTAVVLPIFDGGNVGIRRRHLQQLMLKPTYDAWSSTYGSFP

Asp402 = Asp402 (UniProt position 402, CYPLFDGGNIG); test: kinetics; conditions: free enzyme; substrate nitroethane; cited from earlier work

Q: With `Cc1cc2nc3c(=O)[nH]c(=O)nc-3n(C[C@H](O)[C@H](O)[C@H](O)COP(=O)(O)OP(=O)(O)OC[C@H]3O[C@@H](n4cnc5c(N)ncnc54)[C@H](O)[C@@H]3O)c2cc1C` [FAD] as the compound, how does the “X-ray crystal structure, 2.0 Å” value (PODANSg2158) read?
A: FAD could be clearly identified in each of the subunits.

Q: For “Nitroalkane oxidase (NAO) (Fusarium oxysporum)”, which pKa (Asp402) is on record?
A: 6.9
